Tests used:
MV-4–11 cells = assay: MV-4–11 cytotoxicity assay; format: cell-based; details: read-out: 72-h IC50, 72 h exposure, PrestoBlue
[1] = cited from earlier work
[2] = system: healthy bronchial epithelial cells; details: in vitro; cited from earlier work
[3] = system: ROS generation in MV-4–11 cells; assay: Reactive oxygen species assay; format: cell-based; details: 4 h, Cu(DDC)2 200 µM, menadione 50 µM, versus cell-free condition

Row | Compound | IC50 (MV-4–11 cells) [nM] | solubility (slightly soluble precipitate) [1] [µg/mL] | effect in healthy bronchial epithelial cells [2] | ROS generation [3]
1 | CCN(CC)C(=S)[S-].CCN(CC)C(=S)[S-].[Cu+2] [Cu(DDC)2, Copper diethyldithiocarbamate] | ~110 | < 100 | did not have any effect | –
2 | CC1=CC(=O)c2ccccc2C1=O [Menadione, menadione] | – | – | – | ROS formation in the cells was evident

Source: paper PMC5459956 (International Journal of Nanomedicine, 2017)
